The record followed here is the NIST ThermoML archive (doi:10.1021/je1004966).

The conditions of the data set: Crystal; DTA.

Numbers after ± are expanded uncertainties.

Turning to `Cl.Cn1ccnc1` [1-methylimidazolium chloride], the Normal melting temperature came to 86.0 ± 1 °C.
